# Results: patent publication US20260193293A1, “PEPTIDES CAPABLE OF INHIBITING PROTEIN-PROTEIN INTERACTIONS AT GABAB1A SUBUNIT AND USES THEREOF” (UNIVERSITY OF COPENHAGEN, priority 2022, published 2026)
# Like-named read-outs stand apart in the source and are kept apart here. Non-standard residues stand in square brackets, D forms with d. Residues, ends and D or L forms follow the SMILES beside them. NMeW = CN[C@@H](Cc1c[nH]c2ccccc12)C(=O)O; Cya = N[C@@H](CS(=O)(=O)O)C(=O)O; NMeI = CC[C@H](C)[C@H](NC)C(=O)O; NMeD = CN[C@@H](CC(=O)O)C(=O)O
# Target: Sushi domains (SD1/2) protein
# Test: Fluorescence polarization (FP) competition assay with AJAP-1probe, calculated Ki
# Format: binding
# Procedure, shortened: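 Competition against 25 nM TAMRA-labelled peptide probe binding SD1/2, in PBS pH 7.4 with 1% BSA at rt, read at 530/580 nm. IC50 from sigmoidal dose-response fits, at least triplicate; Ki calculated from IC50 using probe Kd from saturation binding.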
# [1] = Table 9, Ala-, D-amino acids and N-methylation scans of PIANPWT, read-out: Ki (nM) mean ± SEM
# [2] = Table 12, deep mutational scanning validation variants of PIANPWT, read-out: Ki (nM) mean ± SEM
# [3] = purified peptides, read-out: Ki
# [4] = Table 11, deep mutational scanning validation variants of AJAP-1WT, read-out: Ki (nM) mean ± SEM
# [5] = Table 5, elongation and truncation scan of AJAP-1 binding epitope, read-out: Ki (nM) mean ± SEM
compound,measurement,setting,value
CC[C@H](C)[C@H](NC(=O)[C@H](C)NC(=O)[C@H](Cc1c[nH]c2ccccc12)N(C)C(=O)[C@@H]1CCCN1C(C)=O)C(=O)N[C@H](C(=O)N[C@@H](Cc1c[nH]c2ccccc12)C(=O)NCC(=O)N1CCC[C@H]1C(=O)N[C@H](C(=O)N[C@H](C(=O)N[C@@H](CO)C(=O)N[C@@H](CCCNC(=N)N)C(=O)N[C@@H](CCC(=O)O)C(=O)N[C@@H](CC(=O)O)C(N)=O)C(C)C)[C@@H](C)O)C(C)C [P(N-Me-W)AIVWGPTVSRED] (Ac-P[NMeW]AIVWGPTVSRED-NH2),Ki,[1],833 ± 12 nM
CC[C@H](C)[C@H](NC(=O)[C@H](C)NC(=O)[C@H](Cc1c[nH]c2ccccc12)NC(=O)[C@@H]1CCCN1C(C)=O)C(=O)N[C@H](C(=O)N[C@@H](Cc1c[nH]c2ccccc12)C(=O)NCC(=O)N1CCC[C@H]1C(=O)N[C@H](C(=O)N[C@H](C(=O)N[C@@H](CC(=O)O)C(=O)N[C@@H](CCCNC(=N)N)C(=O)N[C@@H](CCC(=O)O)C(=O)N[C@@H](CC(=O)O)C(N)=O)C(C)C)[C@@H](C)O)C(C)C [PWAIVWGPTVDRED] (Ac-PWAIVWGPTVDRED-NH2),Ki,[2],379 ± 9 nM
CC[C@H](C)[C@H](NC(=O)[C@H](C)NC(=O)[C@H](Cc1c[nH]c2ccccc12)NC(=O)[C@@H]1CCCN1C(C)=O)C(=O)N[C@H](C(=O)N[C@@H](Cc1c[nH]c2ccccc12)C(=O)NCC(=O)N1CCC[C@H]1C(=O)N[C@H](C(=O)N[C@H](C(=O)N[C@@H](CO)C(=O)N[C@@H](CC(=O)O)C(=O)N[C@@H](CCC(=O)O)C(=O)N[C@@H](CC(=O)O)C(N)=O)C(C)C)[C@@H](C)O)C(C)C [PWAIVWGPTVSDED] (Ac-PWAIVWGPTVSDED-NH2),Ki,[2],327 ± 6 nM
CC(=O)N1CCC[C@H]1C(=O)N[C@@H](Cc1c[nH]c2ccccc12)C(=O)N[C@@H](C)C(=O)N[C@@H](C)C(=O)N[C@H](C(=O)N[C@@H](Cc1c[nH]c2ccccc12)C(=O)NCC(=O)N1CCC[C@H]1C(=O)N[C@H](C(=O)N[C@H](C(=O)N[C@@H](CO)C(=O)N[C@@H](CCCNC(=N)N)C(=O)N[C@@H](CCC(=O)O)C(=O)N[C@@H](CC(=O)O)C(N)=O)C(C)C)[C@@H](C)O)C(C)C [PWAAVWGPTVSRED] (Ac-PWAAVWGPTVSRED-NH2),Ki,[1],46600 ± 4840 nM
"CC[C@H](C)[C@H](NC(=O)[C@H](Cc1ccccc1)NC(=O)[C@H](CCC(=O)O)NC(=O)[C@@H](NC(=O)[C@H](CCC(=O)O)NC(C)=O)[C@@H](C)O)C(=O)N[C@@H](CS(=O)(=O)O)C(=O)N[C@@H](Cc1c[nH]c2ccccc12)C(=O)NCC(=O)N1CCC[C@H]1C(=O)N[C@H](C(=O)NCC(=O)N[C@@H](CC(=O)O)C(=O)N[C@@H](CCC(=O)O)C(=O)N[C@@H](CC(=O)O)C(N)=O)[C@@H](C)O [ETEFI(Cya)WGPTGDED, Ac-ETEFI(Cya)WGPTGDED-NH2] (Ac-ETEFI[Cya]WGPTGDED-NH2)",Ki,"Table 16, ncAAs incorporated peptides, read-out: Ki (nM) mean ± SEM",12 ± 0.3 nM
same,Ki,[3],11.8 nM
CC[C@H](C)[C@H](NC(=O)[C@H](Cc1ccccc1)NC(=O)[C@H](CCC(=O)O)NC(=O)[C@@H](NC(=O)[C@H](CCC(=O)O)NC(C)=O)[C@@H](C)O)C(=O)N[C@@H](C)C(=O)N[C@@H](Cc1c[nH]c2ccccc12)C(=O)NCC(=O)N1CCC[C@H]1C(=O)N[C@H](C(=O)N[C@@H](Cc1c[nH]cn1)C(=O)N[C@@H](CC(=O)O)C(=O)N[C@@H](CCC(=O)O)C(=O)N[C@@H](CC(=O)O)C(N)=O)[C@@H](C)O [ETEFIAWGPTHDED] (Ac-ETEFIAWGPTHDED-NH2),Ki,[4],30 ± 1 nM
"CC[C@H](C)[C@H](NC(=O)[C@H](Cc1ccccc1)NC(=O)[C@H](CCC(=O)O)NC(=O)[C@@H](NC(=O)[C@H](CCC(=O)O)NC(=O)[C@@H](NC(C)=O)[C@@H](C)O)[C@@H](C)O)C(=O)N[C@@H](C)C(=O)N[C@@H](Cc1c[nH]c2ccccc12)C(=O)NCC(=O)N1CCC[C@H]1C(=O)N[C@H](C(=O)NCC(=O)N[C@@H](CC(=O)O)C(=O)N[C@@H](CCC(=O)O)C(=O)N[C@@H](CC(=O)O)C(N)=O)[C@@H](C)O [Peptide 15, Ac-TETEFIAWGPTGDED-NH2] (Ac-TETEFIAWGPTGDED-NH2)",Ki,[5],26 ± 0.3 nM
same,Ki,[3],23 nM
CC(=O)N[C@@H](CCC(=O)O)C(=O)N[C@@H](CCC(=O)O)C(=O)N[C@@H](CC(=O)O)C(=O)N[C@@H](CC(=O)O)C(=O)N[C@@H](CO)C(=O)N[C@@H](CC(=O)O)C(=O)N[C@H](C(=O)N[C@@H](Cc1c[nH]c2ccccc12)C(=O)N[C@@H](Cc1c[nH]c2ccccc12)C(=O)NCC(=O)NCC(=O)N[C@@H](C)C(=O)N[C@@H](CC(=O)O)C(N)=O)C(C)C (Ac-EEDDSDVWWGGAD-NH2),Ki,"Table 4, truncation and elongation scans of APP epitope, read-out: Ki (nM) mean ± SEM",534 ± 13 nM
CC[C@H](C)[C@H](NC(=O)[C@H](Cc1ccccc1)NC(=O)[C@H](CCC(=O)O)NC(=O)[C@@H](NC(=O)[C@H](CCC(=O)O)NC(C)=O)[C@@H](C)O)C(=O)N[C@@H](C)C(=O)N[C@@H](Cc1c[nH]c2ccccc12)C(=O)NCC(=O)N1CCC[C@H]1C(=O)N[C@H](C(=O)N[C@@H](CCCNC(=N)N)C(=O)N[C@@H](CC(=O)O)C(=O)N[C@@H](CCC(=O)O)C(=O)N[C@@H](CC(=O)O)C(N)=O)[C@@H](C)O [ETEFIAWGPTRDED] (Ac-ETEFIAWGPTRDED-NH2),Ki,[4],32 ± 1 nM
CC[C@H](C)[C@H](NC(=O)[C@H](C)NC(=O)[C@H](C)NC(=O)[C@@H]1CCCN1C(C)=O)C(=O)N[C@H](C(=O)N[C@@H](Cc1c[nH]c2ccccc12)C(=O)NCC(=O)N1CCC[C@H]1C(=O)N[C@H](C(=O)N[C@H](C(=O)N[C@@H](CO)C(=O)N[C@@H](CCCNC(=N)N)C(=O)N[C@@H](CCC(=O)O)C(=O)N[C@@H](CC(=O)O)C(N)=O)C(C)C)[C@@H](C)O)C(C)C [PAAIVWGPTVSRED] (Ac-PAAIVWGPTVSRED-NH2),Ki,[1],911 ± 13 nM
CC[C@H](C)[C@H](NC(=O)[C@H](Cc1ccccc1)NC(=O)[C@H](CCC(=O)O)NC(=O)[C@@H](NC(=O)[C@H](CCC(=O)O)NC(=O)[C@@H](NC(C)=O)[C@@H](C)O)[C@@H](C)O)C(=O)N[C@@H](C)C(=O)N[C@@H](Cc1c[nH]c2ccccc12)C(=O)NCC(=O)N1CCC[C@H]1C(=O)N[C@H](C(=O)NCC(N)=O)[C@@H](C)O (Ac-TETEFIAWGPTG-NH2),Ki,[5],248 ± 7 nM
"CC[C@H](C)[C@H](NC(=O)[C@H](Cc1ccccc1)NC(=O)[C@H](CCC(=O)O)NC(=O)[C@@H](NC(=O)[C@H](CCC(=O)O)NC(C)=O)[C@@H](C)O)C(=O)N[C@@H](CC(=O)O)C(=O)N[C@@H](Cc1c[nH]c2ccccc12)C(=O)NCC(=O)N1CCC[C@H]1C(=O)N[C@H](C(=O)NCC(=O)N[C@@H](CC(=O)O)C(=O)N[C@@H](CCC(=O)O)C(=O)N[C@@H](CC(=O)O)C(N)=O)[C@@H](C)O [Peptide 26, Ac-ETEFIDWGPTGDED-NH2] (Ac-ETEFIDWGPTGDED-NH2)",Ki,[4],9 ± 1 nM
same,Ki,[3],9 nM
same,fold improved affinity relative to the wild type,relative to AJAP-1WT,3 fold
same,Ki,"unit inferred, read-out: Ki",9 nM
CC[C@H](C)[C@H](NC(=O)[C@H](Cc1c[nH]c2ccccc12)NC(=O)[C@H](CC(=O)O)NC(=O)[C@H](CC(=O)O)NC(=O)[C@H](CC(=O)O)NC(=O)[C@H](CCC(=O)O)NC(C)=O)C(=O)N[C@@H](CC(=O)O)C(=O)N[C@@H](Cc1c[nH]c2ccccc12)C(=O)NCC(=O)N1CCC[C@H]1C(=O)N[C@H](C(=O)N[C@@H](CO)C(=O)N[C@@H](CC(=O)O)C(=O)N[C@@H](CC(=O)O)C(=O)N[C@@H](CC(=O)O)C(=O)NCC(=O)NCC(=O)NCC(=O)NCC(=O)N[C@@H](CO)C(=O)N[C@@H](CCCNC(=N)N)C(=O)N[C@@H](CCCNC(=N)N)C(=O)N[C@@H](CCCNC(=N)N)C(=O)N[C@@H](CCCNC(=N)N)C(=O)N[C@@H](CCCNC(=N)N)C(=O)N[C@@H](CCCNC(=N)N)C(=O)N[C@@H](CCCNC(=N)N)C(=O)N[C@@H](CCCNC(=N)N)C(N)=O)[C@@H](C)O [Peptide 17-FL-R8] (Ac-EDDDWIDWGPTSDDDGGGGSRRRRRRRR-NH2),Ki,"CPP tagged peptides overview, SD1/2 binding affinity, mean ± SEM, n ≥ 3, read-out: Ki",147 ± 9 nM
same,Ki,"Table 14, CPPs tagged peptides, read-out: Ki (nM) mean ± SEM",147 ± 9 nM
CC[C@H](C)[C@H](NC(=O)[C@H](C)NC(=O)[C@H](Cc1c[nH]c2ccccc12)NC(=O)[C@@H]1CCCN1C(C)=O)C(=O)N[C@H](C(=O)N[C@@H](Cc1c[nH]c2ccccc12)C(=O)NCC(=O)N1CCC[C@H]1C(=O)N[C@H](C(=O)N[C@H](C(=O)N[C@@H](CO)C(=O)N[C@@H](C)C(=O)N[C@@H](CCC(=O)O)C(=O)N[C@@H](CC(=O)O)C(N)=O)C(C)C)[C@@H](C)O)C(C)C [PWAIVWGPTVSAED] (Ac-PWAIVWGPTVSAED-NH2),Ki,[1],341 ± 7 nM
CC[C@H](C)[C@H](NC(=O)[C@H](Cc1ccccc1)NC(=O)[C@H](CCC(=O)O)NC(=O)[C@@H](NC(=O)[C@H](CCC(=O)O)NC(C)=O)[C@@H](C)O)C(=O)N[C@@H](C)C(=O)N[C@@H](Cc1c[nH]c2ccccc12)C(=O)NCC(=O)N1CCC[C@H]1C(=O)N[C@H](C(=O)NCC(=O)N[C@@H](Cc1ccc(O)cc1)C(=O)N[C@@H](CCC(=O)O)C(=O)N[C@@H](CC(=O)O)C(N)=O)[C@@H](C)O [ETEFIAWGPTGYED] (Ac-ETEFIAWGPTGYED-NH2),Ki,[4],41 ± 1 nM
CC(=O)N[C@@H](CCC(=O)O)C(=O)N[C@@H](CC(=O)O)C(=O)N[C@@H](CC(=O)O)C(=O)N[C@@H](CO)C(=O)N(C)[C@@H](CC(=O)O)C(=O)N[C@H](C(=O)N[C@@H](Cc1c[nH]c2ccccc12)C(=O)N[C@@H](Cc1c[nH]c2ccccc12)C(=O)NCC(=O)NCC(=O)N[C@@H](C)C(=O)N[C@@H](CC(=O)O)C(=O)N[C@H](C(=O)N[C@@H](CC(=O)O)C(N)=O)[C@@H](C)O)C(C)C (Ac-EDDS[NMeD]VWWGGADTD-NH2),Ki,"Table 7, Ala-, D-amino acids and N-methylation scans of APPWT, read-out: Ki (nM) mean ± SEM",3760 ± 64 nM
CC[C@H](C)[C@@H](C(=O)N[C@@H](C)C(=O)N[C@@H](Cc1c[nH]c2ccccc12)C(=O)NCC(=O)N1CCC[C@H]1C(=O)N[C@H](C(=O)NCC(=O)N[C@@H](CC(=O)O)C(=O)N[C@@H](CCC(=O)O)C(=O)N[C@@H](CC(=O)O)C(N)=O)[C@@H](C)O)N(C)C(=O)[C@H](Cc1ccccc1)NC(=O)[C@H](CCC(=O)O)NC(=O)[C@@H](NC(=O)[C@H](CCC(=O)O)NC(C)=O)[C@@H](C)O [ETEF(N-Me-I)AWGPTGDED] (Ac-ETEF[NMeI]AWGPTGDED-NH2),Ki,"Table 8, Ala-, D-amino acids and N-methylation scans of AJAP-1WT, read-out: Ki (nM) mean ± SEM",33 ± 1 nM
